Measurements published in the NIST ThermoML archive (doi:10.1016/j.jct.2017.10.012).
± gives the expanded uncertainty stated by the source.

Conditions: Liquid, Vibrating tube method

CCCC[n+]1cccc(C)c1.O=S(=O)([N-]S(=O)(=O)C(F)(F)F)C(F)(F)F
Conditions	mass density [kg/m3]
278.15 K, 100 kPa	1431.5 ± 0.7
278.15 K, 101.33 kPa	1430.9 ± 0.5
278.15 K, 1000 kPa	1432.1 ± 0.7
278.15 K, 10000 kPa	1438.3 ± 0.8
278.15 K, 20000 kPa	1444.9 ± 0.9
278.15 K, 40000 kPa	1457.2 ± 1.1
278.15 K, 60000 kPa	1468.5 ± 1.4
278.15 K, 80000 kPa	1479.1 ± 1.7
278.15 K, 100000 kPa	1488.9 ± 2.1
278.15 K, 120000 kPa	1498.1 ± 2.6
279.15 K, 101.33 kPa	1429.9 ± 0.5
280.15 K, 101.33 kPa	1428.9 ± 0.5
281.15 K, 101.33 kPa	1427.9 ± 0.5
282.15 K, 101.33 kPa	1427 ± 0.5
283.15 K, 101.33 kPa	1426 ± 0.5
284.15 K, 101.33 kPa	1425 ± 0.5
285.15 K, 101.33 kPa	1424 ± 0.5
286.15 K, 101.33 kPa	1423.1 ± 0.5
287.15 K, 101.33 kPa	1422.1 ± 0.5
288.15 K, 101.33 kPa	1421.2 ± 0.5
289.15 K, 101.33 kPa	1420.2 ± 0.5
290.15 K, 101.33 kPa	1419.3 ± 0.5
291.15 K, 101.33 kPa	1418.3 ± 0.5
292.15 K, 101.33 kPa	1417.4 ± 0.5
293.15 K, 101.33 kPa	1416.5 ± 0.5
294.15 K, 101.33 kPa	1415.6 ± 0.5
295.15 K, 101.33 kPa	1414.6 ± 0.5
296.15 K, 101.33 kPa	1413.7 ± 0.5
297.15 K, 101.33 kPa	1412.8 ± 0.5
298.15 K, 100 kPa	1413.3 ± 0.7
298.15 K, 101.33 kPa	1411.9 ± 0.5
298.15 K, 1000 kPa	1414 ± 0.7
298.15 K, 10000 kPa	1420.4 ± 0.8
298.15 K, 20000 kPa	1427.3 ± 0.9
298.15 K, 40000 kPa	1440.1 ± 1.1
298.15 K, 60000 kPa	1452 ± 1.4
298.15 K, 80000 kPa	1463 ± 1.7
298.15 K, 100000 kPa	1473.5 ± 2.1
298.15 K, 120000 kPa	1483.1 ± 2.5
299.15 K, 101.33 kPa	1410.9 ± 0.5
300.15 K, 101.33 kPa	1410 ± 0.5
301.15 K, 101.33 kPa	1409.1 ± 0.5
302.15 K, 101.33 kPa	1408.2 ± 0.5
303.15 K, 101.33 kPa	1407.3 ± 0.5
304.15 K, 101.33 kPa	1406.4 ± 0.5
305.15 K, 101.33 kPa	1405.4 ± 0.5
306.15 K, 101.33 kPa	1404.5 ± 0.5
307.15 K, 101.33 kPa	1403.6 ± 0.5
308.15 K, 101.33 kPa	1402.7 ± 0.5
309.15 K, 101.33 kPa	1401.8 ± 0.5
310.15 K, 101.33 kPa	1400.9 ± 0.5
311.15 K, 101.33 kPa	1399.9 ± 0.5
312.15 K, 101.33 kPa	1399 ± 0.5
313.15 K, 100 kPa	1399.8 ± 0.7
313.15 K, 101.33 kPa	1398.1 ± 0.5
313.15 K, 1000 kPa	1400.5 ± 0.7
313.15 K, 10000 kPa	1407.3 ± 0.8
313.15 K, 20000 kPa	1414.5 ± 0.9
313.15 K, 40000 kPa	1428 ± 1.1
313.15 K, 60000 kPa	1440.3 ± 1.3
313.15 K, 80000 kPa	1451.7 ± 1.6
313.15 K, 100000 kPa	1462.4 ± 2
313.15 K, 120000 kPa	1472.1 ± 2.4
314.15 K, 101.33 kPa	1397.2 ± 0.5
315.15 K, 101.33 kPa	1396.3 ± 0.5
316.15 K, 101.33 kPa	1395.4 ± 0.5
317.15 K, 101.33 kPa	1394.5 ± 0.5
318.15 K, 101.33 kPa	1393.6 ± 0.5
319.15 K, 101.33 kPa	1392.7 ± 0.5
320.15 K, 101.33 kPa	1391.8 ± 0.5
321.15 K, 101.33 kPa	1390.9 ± 0.5
322.15 K, 101.33 kPa	1390 ± 0.5
323.15 K, 101.33 kPa	1389.2 ± 0.5
324.15 K, 101.33 kPa	1388.2 ± 0.5
325.15 K, 101.33 kPa	1387.4 ± 0.5
326.15 K, 101.33 kPa	1386.5 ± 0.5
327.15 K, 101.33 kPa	1385.6 ± 0.5
328.15 K, 101.33 kPa	1384.7 ± 0.5
329.15 K, 101.33 kPa	1383.8 ± 0.5
330.15 K, 101.33 kPa	1382.9 ± 0.5
331.15 K, 101.33 kPa	1382.1 ± 0.5
332.15 K, 101.33 kPa	1381.3 ± 0.5
333.15 K, 100 kPa	1381.5 ± 0.7
333.15 K, 101.33 kPa	1380.4 ± 0.5
333.15 K, 1000 kPa	1382.2 ± 0.7
333.15 K, 10000 kPa	1389.6 ± 0.8
333.15 K, 20000 kPa	1397.2 ± 0.8
333.15 K, 40000 kPa	1411.4 ± 1
333.15 K, 60000 kPa	1424.4 ± 1.3
333.15 K, 80000 kPa	1436.3 ± 1.6
333.15 K, 100000 kPa	1447.5 ± 2
333.15 K, 120000 kPa	1457.6 ± 2.4
334.15 K, 101.33 kPa	1379.4 ± 0.5
335.15 K, 101.33 kPa	1378.5 ± 0.5
336.15 K, 101.33 kPa	1377.6 ± 0.5
337.15 K, 101.33 kPa	1376.7 ± 0.5
338.15 K, 101.33 kPa	1375.8 ± 0.5
339.15 K, 101.33 kPa	1374.9 ± 0.5
340.15 K, 101.33 kPa	1374.1 ± 0.5
341.15 K, 101.33 kPa	1373.3 ± 0.5
342.15 K, 101.33 kPa	1372.4 ± 0.5
343.15 K, 101.33 kPa	1371.4 ± 0.5
344.15 K, 101.33 kPa	1370.5 ± 0.5
345.15 K, 101.33 kPa	1369.7 ± 0.5
346.15 K, 101.33 kPa	1368.7 ± 0.5
347.15 K, 101.33 kPa	1367.8 ± 0.5
348.15 K, 100 kPa	1367.9 ± 0.7
348.15 K, 101.33 kPa	1366.9 ± 0.5
348.15 K, 1000 kPa	1368.7 ± 0.7
348.15 K, 10000 kPa	1376.4 ± 0.8
348.15 K, 20000 kPa	1384.4 ± 0.8
348.15 K, 40000 kPa	1399.2 ± 1
348.15 K, 60000 kPa	1412.7 ± 1.3
348.15 K, 80000 kPa	1425 ± 1.6
348.15 K, 100000 kPa	1436.5 ± 1.9
348.15 K, 120000 kPa	1446.9 ± 2.3
349.15 K, 101.33 kPa	1366 ± 0.5
350.15 K, 101.33 kPa	1364.9 ± 0.5
351.15 K, 101.33 kPa	1364 ± 0.5
352.15 K, 101.33 kPa	1363 ± 0.5
353.15 K, 101.33 kPa	1362.2 ± 0.5
354.15 K, 101.33 kPa	1361.2 ± 0.5
355.15 K, 101.33 kPa	1360.4 ± 0.5
356.15 K, 101.33 kPa	1359.4 ± 0.5
357.15 K, 101.33 kPa	1358.6 ± 0.5
358.15 K, 101.33 kPa	1357.7 ± 0.5
359.15 K, 101.33 kPa	1356.8 ± 0.5
360.15 K, 101.33 kPa	1356 ± 0.5
361.15 K, 101.33 kPa	1355.1 ± 0.5
362.15 K, 101.33 kPa	1354.3 ± 0.5
363.15 K, 101.33 kPa	1353.4 ± 0.5
364.15 K, 101.33 kPa	1352.6 ± 0.5
365.15 K, 101.33 kPa	1351.7 ± 0.5
366.15 K, 101.33 kPa	1350.9 ± 0.5
367.15 K, 101.33 kPa	1350 ± 0.5
368.15 K, 101.33 kPa	1349.2 ± 0.5
369.15 K, 101.33 kPa	1348.3 ± 0.5
370.15 K, 101.33 kPa	1347.5 ± 0.5
371.15 K, 101.33 kPa	1346.7 ± 0.5
372.15 K, 101.33 kPa	1345.8 ± 0.5
373.15 K, 100 kPa	1346.3 ± 5
373.15 K, 101.33 kPa	1345 ± 0.5
373.15 K, 1000 kPa	1346.5 ± 3
373.15 K, 10000 kPa	1354.8 ± 3
373.15 K, 20000 kPa	1363.4 ± 3
373.15 K, 40000 kPa	1379.2 ± 3.1
373.15 K, 60000 kPa	1393.5 ± 3.2
373.15 K, 80000 kPa	1406.6 ± 3.3
373.15 K, 100000 kPa	1418.7 ± 3.4
373.15 K, 120000 kPa	1429.9 ± 3.6
398.15 K, 100 kPa	1324.8 ± 5
398.15 K, 1000 kPa	1324.6 ± 3
398.15 K, 10000 kPa	1333.5 ± 3
398.15 K, 20000 kPa	1342.9 ± 3
398.15 K, 40000 kPa	1359.8 ± 3.1
398.15 K, 60000 kPa	1374.9 ± 3.2
398.15 K, 80000 kPa	1388.7 ± 3.3
398.15 K, 100000 kPa	1401.4 ± 3.4
398.15 K, 120000 kPa	1413.4 ± 3.6
